Data on 19 molecules can be found in PubChem BioAssay (NCI).

Structures are written as SMILES.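 In this assay, cells in 96-well plates receive the compound at five concentrations for 48 hours. Endpoints are linearly interpolated between the surrounding concentrations. At the TGI there is no net growth.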 Where a SMILES comes first, the peptide text is derived from it. [ ]: non-standard residue; d: D form. The star is where a group is joined. ξ: configuration not given here. ξW = NC(Cc1c[nH]c2ccccc12)C(=O)O; X30 = O=C(O)[C@H]1CCC[C@H]1N*; ξF = NC(Cc1ccccc1)C(=O)O; Boc = CC(C)(C)OC(=O)*; ξK = NCCCCC(N)C(=O)O; ξT = CC(O)C(N)C(=O)O; tBu = CC(C)(C)*

Some test systems named below: HL-60(TB) leukemia; CAKI-1 renal; HCC-2998 colon; SK-OV-3 ovarian; SK-MEL-5 melanoma; OVCAR-5 ovarian; A549 NSCLC; 786-0 renal; NCI-H522 lung; NCI-H460 lung; HCT-15 colon.
Holding throughout (assay): NCI-60 cell line screen, 48 h

Turning to `Cc1ccc(N=Nc2c(C)nn(C(=O)CC(=O)Nc3ccc(Cl)cc3)c2C)cc1C`, the TGI is 56 µM with HL-60(TB) leukemia; greater than 100 µM in the assay with CAKI-1 renal; greater than 100 µM in the assay with HCC-2998 colon; 51.2 µM with SK-OV-3 ovarian; greater than 100 µM with SK-MEL-5 melanoma; greater than 100 µM with OVCAR-5 ovarian. For the same molecule, the TGI in the assay on A549 NSCLC, with 786-0 renal, in the assay with NCI-H522 lung and in the assay with NCI-H460 lung was greater than 100 µM in each case.

Turning to `CC(OC(C)(C)C)C(NC(=O)C(CCCCNC(=O)OC(C)(C)C)NC(=O)C(Cc1c[nH]c2ccccc12)NC(=O)C(N)Cc1ccccc1)C(=O)NC(Cc1ccccc1)C(=O)N[C@@H]1CCC[C@@H]1C(=O)O` (some centres undefined) (H-[ξF][ξW][ξK](Boc)[ξT](tBu)[ξF]-X30), the TGI in the assay on HL-60(TB) leukemia is 82.9 µM; in the assay on CAKI-1 renal, greater than 100 µM; in the assay on HCC-2998 colon it was 41.1 µM; in the assay with SK-OV-3 ovarian, greater than 100 µM; with SK-MEL-5 melanoma, greater than 100 µM; with OVCAR-5 ovarian, 40.6 µM. Also, the TGI is greater than 100 µM in the assay with A549 NSCLC, greater than 100 µM with 786-0 renal, 41 µM with NCI-H522 lung and greater than 100 µM in the assay on NCI-H460 lung.

Take `COc1cc(/C=C2/C(=O)N=C(NC(C)=O)N2C)ccc1OC(C)=O`: the TGI in the assay on HL-60(TB) leukemia, with CAKI-1 renal, with HCC-2998 colon, with SK-OV-3 ovarian, in the assay on SK-MEL-5 melanoma and in the assay on OVCAR-5 ovarian was greater than 100 µM throughout. In addition, the TGI in the assay on HCT-15 colon, with A549 NSCLC, in the assay on 786-0 renal and in the assay on NCI-H460 lung was greater than 100 µM each time.

As to `C=CCOCn1ccc(NC(=O)c2ccccc2)nc1=O`, the TGI with HL-60(TB) leukemia, in the assay with CAKI-1 renal, with HCC-2998 colon, in the assay on SK-OV-3 ovarian, with SK-MEL-5 melanoma and with HCT-15 colon was greater than 100 µM in each case. Moreover, the TGI in the assay with A549 NSCLC, in the assay on 786-0 renal, in the assay with NCI-H522 lung and in the assay with NCI-H460 lung was greater than 100 µM throughout.

Turning to `CC1=C(c2ccc(C)cc2)NC(=S)C(C)C(c2ccc(C)cc2)=N1` (centres undefined), the TGI with HL-60(TB) leukemia, in the assay on CAKI-1 renal, in the assay on HCC-2998 colon, in the assay on SK-OV-3 ovarian, in the assay with SK-MEL-5 melanoma and with OVCAR-5 ovarian was greater than 100 µM each time. Further, the TGI with HCT-15 colon, in the assay on A549 NSCLC, in the assay on 786-0 renal and in the assay on NCI-H460 lung was greater than 100 µM in each case.

In the case of `O=C1c2cscc2C(=O)c2c(OCc3ccccc3)ccc(OCc3ccccc3)c21`, the TGI in the assay on HL-60(TB) leukemia, in the assay on CAKI-1 renal, in the assay on HCC-2998 colon, in the assay with SK-OV-3 ovarian, in the assay with SK-MEL-5 melanoma and with OVCAR-5 ovarian was greater than 100 µM in each case. Moreover, the TGI in the assay on A549 NSCLC, in the assay with 786-0 renal, with NCI-H522 lung and with NCI-H460 lung was greater than 100 µM throughout.

For the molecule `CCCC(=O)[O-].CCCC(=O)[O-].N.N.N.N.[Co+3].[O-][Cl+3]([O-])([O-])[O-]`, the TGI in the assay on HL-60(TB) leukemia, in the assay with HCC-2998 colon, with SK-OV-3 ovarian, in the assay with SK-MEL-5 melanoma, in the assay on OVCAR-5 ovarian and with HCT-15 colon was greater than 100 µM throughout. Besides, the TGI in the assay with A549 NSCLC, in the assay with 786-0 renal, in the assay on NCI-H522 lung and with NCI-H460 lung was greater than 100 µM in each case.

For the molecule `O=c1c2ccccc2n2n1Cc1ccccc1C2`, the TGI in the assay with HL-60(TB) leukemia, in the assay with CAKI-1 renal, in the assay on HCC-2998 colon, in the assay on SK-OV-3 ovarian, in the assay on SK-MEL-5 melanoma and with HCT-15 colon was greater than 100 µM in each case. The TGI in the assay with A549 NSCLC, in the assay on 786-0 renal, with NCI-H522 lung and with NCI-H460 lung was greater than 100 µM in each case.

As for `O=C1C=C(NCCc2cc(Cl)c(O)c(Cl)c2)C(=O)c2[nH]cnc21`, the TGI in the assay with HL-60(TB) leukemia is 32.9 µM; in the assay with HCC-2998 colon it was greater than 100 µM; with SK-MEL-5 melanoma it was 31.5 µM; in the assay with OVCAR-5 ovarian, greater than 100 µM; in the assay with HCT-15 colon, greater than 100 µM; in the assay with A549 NSCLC it was greater than 100 µM. In addition, the TGI with 786-0 renal was greater than 100 µM; in the assay with NCI-H522 lung it was 31.4 µM; with NCI-H460 lung, 68.3 µM.

`Cc1nc2ccc(S(=O)(=O)Nc3ccccc3Cl)cc2c(=O)n1NC(=O)CNc1ccccc1Cl`: the TGI with HL-60(TB) leukemia, in the assay on CAKI-1 renal, in the assay with HCC-2998 colon, with SK-OV-3 ovarian, with OVCAR-5 ovarian and in the assay with HCT-15 colon was greater than 100 µM in each case. In addition, the TGI in the assay with A549 NSCLC, with 786-0 renal, in the assay with NCI-H522 lung and in the assay on NCI-H460 lung was greater than 100 µM in each case.

For the molecule `Cc1n(CC(C)C)c2c([n+]1CC(=O)c1ccc([N+](=O)[O-])cc1)C(=O)c1ccccc1C2=O`, the TGI was less than 0.01 µM in the assay on HL-60(TB) leukemia; 1.13 µM in the assay on CAKI-1 renal; 1.18 µM in the assay with HCC-2998 colon; 0.869 µM with SK-OV-3 ovarian; less than 0.0309 µM in the assay with SK-MEL-5 melanoma; 0.0698 µM in the assay on OVCAR-5 ovarian. Also, the TGI in the assay with HCT-15 colon was 15.6 µM; with A549 NSCLC, 0.933 µM; in the assay with NCI-H522 lung it was less than 0.01 µM; in the assay with NCI-H460 lung, 1.38 µM.

As to `COc1cc(O)c2c(c1O)C(=O)c1cc(C)ncc1C2=O`, the TGI with HL-60(TB) leukemia is greater than 50 µM; with HCC-2998 colon, greater than 50 µM; in the assay on SK-OV-3 ovarian, 35.7 µM; with SK-MEL-5 melanoma, 30 µM; with OVCAR-5 ovarian it was greater than 50 µM; with HCT-15 colon, greater than 50 µM. In addition, the TGI in the assay with A549 NSCLC, with 786-0 renal, in the assay with NCI-H522 lung and in the assay with NCI-H460 lung was greater than 50 µM in each case.

With `Cc1cn(C2CC(N=[N+]=[N-])C(CO)O2)c(=O)n(CCCCO)c1=O` (centres undefined), the TGI in the assay with HL-60(TB) leukemia, in the assay with CAKI-1 renal, in the assay with HCC-2998 colon, in the assay on SK-OV-3 ovarian, with OVCAR-5 ovarian and in the assay with HCT-15 colon was greater than 100 µM in each case. The TGI with A549 NSCLC, in the assay with 786-0 renal, with NCI-H522 lung and in the assay on NCI-H460 lung was greater than 100 µM throughout.

For the molecule `NS(=O)(=O)c1ccc(N=Nc2nc3[nH]cnc(=S)c3[nH]2)cc1`, the TGI was 16.7 µM in the assay with HL-60(TB) leukemia; greater than 100 µM in the assay on CAKI-1 renal; 2.83 µM in the assay with HCC-2998 colon; 24.8 µM in the assay on SK-MEL-5 melanoma; greater than 60.2 µM in the assay on OVCAR-5 ovarian; greater than 50.9 µM with HCT-15 colon. In addition, the TGI in the assay on A549 NSCLC was greater than 89.6 µM; with 786-0 renal, greater than 100 µM; with NCI-H522 lung, 10.2 µM; in the assay with NCI-H460 lung, 10.1 µM.

As to `Cc1cccc(Nc2nc(NNC(=O)Cc3ccccc3)nc(NNC(=O)c3ccncc3)n2)c1`, the TGI in the assay with HL-60(TB) leukemia, with CAKI-1 renal, in the assay with HCC-2998 colon, in the assay on SK-OV-3 ovarian, with SK-MEL-5 melanoma and with HCT-15 colon was greater than 10 µM in each case. Further, the TGI in the assay on A549 NSCLC, in the assay with 786-0 renal, in the assay on NCI-H522 lung and with NCI-H460 lung was greater than 10 µM each time.

As for `CCN(CC)CCOCC1CCCN2CCCCC12` (centres undefined), the TGI in the assay with HL-60(TB) leukemia, with CAKI-1 renal, in the assay on HCC-2998 colon, in the assay on SK-OV-3 ovarian, with SK-MEL-5 melanoma and in the assay with OVCAR-5 ovarian was greater than 100 µM throughout. The TGI in the assay with HCT-15 colon, in the assay on A549 NSCLC, in the assay on 786-0 renal and in the assay with NCI-H460 lung was greater than 100 µM throughout.

For `O=C(Nn1c(-c2ccccc2)nc2ccccc2c1=O)c1ccc(O)cc1`, the TGI with HL-60(TB) leukemia, with HCC-2998 colon, in the assay with SK-OV-3 ovarian, with SK-MEL-5 melanoma, with OVCAR-5 ovarian and with HCT-15 colon was greater than 100 µM in each case. The TGI with A549 NSCLC, in the assay on 786-0 renal, in the assay with NCI-H522 lung and in the assay with NCI-H460 lung was greater than 100 µM in each case.

`COc1ccc2[nH]cc(CN3CCC(CO)(c4ccccc4)CC3)c2c1`: the TGI in the assay on HL-60(TB) leukemia was 48.5 µM; in the assay with HCC-2998 colon, 46.2 µM; with SK-OV-3 ovarian, greater than 100 µM; in the assay on SK-MEL-5 melanoma it was 27.1 µM; with OVCAR-5 ovarian, greater than 100 µM; in the assay with HCT-15 colon, greater than 100 µM. Besides, the TGI is 57.3 µM in the assay with A549 NSCLC, 28.6 µM in the assay with 786-0 renal, 35.5 µM in the assay on NCI-H522 lung and greater than 100 µM in the assay with NCI-H460 lung.

Regarding `Cc1ccc(C(=O)c2[nH]c(Nc3ccc(Cl)cc3)c(C(=S)Nc3ccccc3)c2N)cc1`, the TGI with HL-60(TB) leukemia is greater than 100 µM; in the assay with CAKI-1 renal it was 30.6 µM; in the assay with HCC-2998 colon, 5.31 µM; with SK-OV-3 ovarian, 27.3 µM; with OVCAR-5 ovarian, 40.9 µM; in the assay on HCT-15 colon it was 28.5 µM. Moreover, the TGI with A549 NSCLC was 5.29 µM; in the assay on 786-0 renal, 6.4 µM; in the assay with NCI-H522 lung, 23.6 µM; in the assay on NCI-H460 lung, 15.4 µM.
